Literature values as cited in PubChem BioAssay AID1259409 (Chemical Carcinogenesis Research Information System (CCRIS), 2018).

Tested on: rodent chemically induced tumor inhibition, incidence and multiplicity
Experiment: CCRIS tumor inhibitor studies

## C=C[C@H](OC(C)=O)c1ccc(OC(C)=O)cc1
Carcinogen: 4-NITROQUINOLINE-1-OXIDE, 56-57-5, Dose [Inhibitor]: 0, 100 PPM IN DIET FOR 10 WK BEGINNING 1 WK PRIOR TO CARCINOGEN TREATMENT (STUDY DURATION: 32 WK), Route [Inhibitor]: ORAL, Species: RAT, Strain/Sex: F344/MALE, Target Tissue: Type of Lesion: TONGUE: PAPILLOMA OR CARCINOMA, Dose [Carcinogen]: 20 PPM IN DRINKING WATER FOR 8 WK, Promoter: NONE USED
  tumour outcome (control, treated, inhibition, significance): 14/24 (58%), 0/20 (0%), 100%, p<0.001
Carcinogen: 4-NITROQUINOLINE-1-OXIDE, 56-57-5, Dose [Inhibitor]: 0, 100 PPM IN DIET FOR 22 WK BEGINNING 1 WK POST CARCINOGEN TREATMENT (STUDY DURATION: 32 WK), Route [Inhibitor]: ORAL, Species: RAT, Strain/Sex: F344/MALE, Target Tissue: Type of Lesion: TONGUE: PAPILLOMA OR CARCINOMA, Dose [Carcinogen]: 20 PPM IN DRINKING WATER FOR 8 WK, Promoter: NONE USED
  tumour outcome (control, treated, inhibition, significance): 14/24 (58%), 0/20 (0%), 100%, p<0.001
Carcinogen: 4-NITROQUINOLINE-1-OXIDE, 56-57-5, Dose [Inhibitor]: 0, 500 PPM IN DIET FOR 10 WK BEGINNING 1 WK PRIOR TO CARCINOGEN TREATMENT (STUDY DURATION: 32 WK), Route [Inhibitor]: ORAL, Species: RAT, Strain/Sex: F344/MALE, Target Tissue: Type of Lesion: TONGUE: PAPILLOMA OR CARCINOMA, Dose [Carcinogen]: 20 PPM IN DRINKING WATER FOR 8 WK, Promoter: NONE USED
  tumour outcome (control, treated, inhibition, significance): 14/24 (58%), 2/23 (9%), 84%, p<0.001
Carcinogen: 4-NITROQUINOLINE-1-OXIDE, 56-57-5, Dose [Inhibitor]: 0, 500 PPM IN DIET FOR 22 WK BEGINNING 1 WK POST CARCINOGEN TREATMENT (STUDY DURATION: 32 WK), Route [Inhibitor]: ORAL, Species: RAT, Strain/Sex: F344/MALE, Target Tissue: Type of Lesion: TONGUE: PAPILLOMA OR CARCINOMA, Dose [Carcinogen]: 20 PPM IN DRINKING WATER FOR 8 WK, Promoter: NONE USED
  tumour outcome (control, treated, inhibition, significance): 14/24 (58%), 0/23 (0%), 100%, p<0.001
Carcinogen: AZOXYMETHANE, 25843-45-2, Dose [Inhibitor]: 0, 0.01% IN DIET FOR 4 WK BEGINNING 1 WK PRIOR TO CARCINOGEN TREATMENT (STUDY DURATION: 38 WK), Route [Inhibitor]: ORAL, Species: RAT, Strain/Sex: F344/MALE, Target Tissue: Type of Lesion: COLON: ADENOCARCINOMA, Dose [Carcinogen]: 15 MG/KG BW 1/WK FOR 3 WK, Promoter: NONE
  tumour outcome (control, treated, inhibition, significance): 70%, 33%, 53%, p<0.03
Carcinogen: AZOXYMETHANE, 25843-45-2, Dose [Inhibitor]: 0, 0.01% IN DIET FOR 34 WK BEGINNING 1 WK POST LAST CARCINOGEN DOSE (STUDY DURATION: 38 WK), Route [Inhibitor]: ORAL, Species: RAT, Strain/Sex: F344/MALE, Target Tissue: Type of Lesion: COLON: ADENOCARCINOMA, Dose [Carcinogen]: 15 MG/KG BW 1/WK FOR 3 WK, Promoter: NONE
  tumour outcome (control, treated, inhibition, significance): 70%, 38%, 46%, not significant
Carcinogen: AZOXYMETHANE, 25843-45-2, Dose [Inhibitor]: 0, 0.02% IN DIET FOR 4 WK BEGINNING 1 WK PRIOR TO CARCINOGEN TREATMENT (STUDY DURATION: 38 WK), Route [Inhibitor]: ORAL, Species: RAT, Strain/Sex: F344/MALE, Target Tissue: Type of Lesion: COLON: ADENOCARCINOMA, Dose [Carcinogen]: 15 MG/KG BW 1/WK FOR 3 WK, Promoter: NONE
  tumour outcome (control, treated, inhibition, significance): 70%, 17%, 76%, p<0.001
Carcinogen: AZOXYMETHANE, 25843-45-2, Dose [Inhibitor]: 0, 0.02% IN DIET FOR 34 WK BEGINNING 1 WK POST LAST CARCINOGEN DOSE (STUDY DURATION: 38 WK), Route [Inhibitor]: ORAL, Species: RAT, Strain/Sex: F344/MALE, Target Tissue: Type of Lesion: COLON: ADENOCARCINOMA, Dose [Carcinogen]: 15 MG/KG BW 1/WK FOR 3 WK, Promoter: NONE
  tumour outcome (control, treated, inhibition, significance): 70%, 6%, 91%, p<0.00003
Carcinogen: AZOXYMETHANE, 25843-45-2, Dose [Inhibitor]: 0, 100 PPM IN DIET FOR 4 WK BEGINNING 1 WK PRIOR TO CARCINOGEN TREATMENT (STUDY DURATION: 38 WK), Route [Inhibitor]: ORAL, Species: RAT, Strain/Sex: F344/MALE, Target Tissue: Type of Lesion: LARGE INTESTINE: TUMOR, Dose [Carcinogen]: 15 MG/KG BW 1/WK FOR 3 WK, Promoter: NONE USED
  tumour outcome (control, treated, inhibition, significance): 12/17 (71%), 7/18 (39%), 45%, not significant
Carcinogen: AZOXYMETHANE, 25843-45-2, Dose [Inhibitor]: 0, 100 PPM IN DIET FOR 4 WK BEGINNING 1 WK PRIOR TO CARCINOGEN TREATMENT (STUDY DURATION: 38 WK), Route [Inhibitor]: ORAL, Species: RAT, Strain/Sex: F344/MALE, Target Tissue: Type of Lesion: SMALL INTESTINE: TUMOR, Dose [Carcinogen]: 15 MG/KG BW 1/WK FOR 3 WK, Promoter: NONE USED
  tumour outcome (control, treated, inhibition, significance): 5/17 (29%), 3/18 (17%), 41%, not significant
Carcinogen: AZOXYMETHANE, 25843-45-2, Dose [Inhibitor]: 0, 100 PPM IN DIET FOR 34 WK BEGINNING 1 WK POST CARCINOGEN TREATMENT (STUDY DURATION: 38 WK), Route [Inhibitor]: ORAL, Species: RAT, Strain/Sex: F344/MALE, Target Tissue: Type of Lesion: LARGE INTESTINE: TUMOR, Dose [Carcinogen]: 15 MG/KG BW 1/WK FOR 3 WK, Promoter: NONE USED
  tumour outcome (control, treated, inhibition, significance): 12/17 (71%), 9/18 (50%), 30%, not significant
Carcinogen: AZOXYMETHANE, 25843-45-2, Dose [Inhibitor]: 0, 100 PPM IN DIET FOR 34 WK BEGINNING 1 WK POST CARCINOGEN TREATMENT (STUDY DURATION: 38 WK), Route [Inhibitor]: ORAL, Species: RAT, Strain/Sex: F344/MALE, Target Tissue: Type of Lesion: SMALL INTESTINE: TUMOR, Dose [Carcinogen]: 15 MG/KG BW 1/WK FOR 3 WK, Promoter: NONE USED
  tumour outcome (control, treated, inhibition, significance): 5/17 (29%), 4/18 (22%), 24%, not significant
Carcinogen: AZOXYMETHANE, 25843-45-2, Dose [Inhibitor]: 0, 500 PPM IN DIET FOR 4 WK BEGINNING 1 WK PRIOR TO CARCINOGEN TREATMENT (STUDY DURATION: 38 WK), Route [Inhibitor]: ORAL, Species: RAT, Strain/Sex: F344/MALE, Target Tissue: Type of Lesion: LARGE INTESTINE: TUMOR, Dose [Carcinogen]: 15 MG/KG BW 1/WK FOR 3 WK, Promoter: NONE USED
  tumour outcome (control, treated, inhibition, significance): 12/17 (71%), 8/19 (42%), 41%, not significant
Carcinogen: AZOXYMETHANE, 25843-45-2, Dose [Inhibitor]: 0, 500 PPM IN DIET FOR 4 WK BEGINNING 1 WK PRIOR TO CARCINOGEN TREATMENT (STUDY DURATION: 38 WK), Route [Inhibitor]: ORAL, Species: RAT, Strain/Sex: F344/MALE, Target Tissue: Type of Lesion: SMALL INTESTINE: TUMOR, Dose [Carcinogen]: 15 MG/KG BW 1/WK FOR 3 WK, Promoter: NONE USED
  tumour outcome (control, treated, inhibition, significance): 5/17 (29%), 5/19 (26%), 10%, not significant
Carcinogen: AZOXYMETHANE, 25843-45-2, Dose [Inhibitor]: 0, 500 PPM IN DIET FOR 34 WK BEGINNING 1 WK POST CARCINOGEN TREATMENT (STUDY DURATION: 38 WK), Route [Inhibitor]: ORAL, Species: RAT, Strain/Sex: F344/MALE, Target Tissue: Type of Lesion: LARGE INTESTINE: TUMOR, Dose [Carcinogen]: 15 MG/KG BW 1/WK FOR 3 WK, Promoter: NONE USED
  tumour outcome (control, treated, inhibition, significance): 12/17 (71%), 4/20 (20%), 72%, p=0.002
Carcinogen: AZOXYMETHANE, 25843-45-2, Dose [Inhibitor]: 0, 500 PPM IN DIET FOR 34 WK BEGINNING 1 WK POST CARCINOGEN TREATMENT (STUDY DURATION: 38 WK), Route [Inhibitor]: ORAL, Species: RAT, Strain/Sex: F344/MALE, Target Tissue: Type of Lesion: SMALL INTESTINE: TUMOR, Dose [Carcinogen]: 15 MG/KG BW 1/WK FOR 3 WK, Promoter: NONE USED
  tumour outcome (control, treated, inhibition, significance): 5/17 (29%), 2/20 (10%), 66%, not significant

## Cn1cnc2[nH]c(=O)[nH]c(=O)c21
Carcinogen: URETHANE, 51-79-6, Dose [Inhibitor]: 0.05 UMOL/G BW GIVEN AT 6 HR INTERVALS DURING THE PERIOD OF 0 TO 36 HR AFTER CARCINOGEN TREATMENT FOLLOWED BY 5 MO OBSER, Route [Inhibitor]: INTRAPERITONEAL, Species: MOUSE, Strain/Sex: ICR/FEMALE, Target Tissue: Type of Lesion: LUNG: PAPILLARY ADENOMA, Dose [Carcinogen]: 0.1 MG/G BW ONCE, Promoter: NONE USED
  tumour outcome (control, treated, inhibition, significance): 31/59 (53%), 18/48 (38%), 28%, p 0.12
Carcinogen: URETHANE, 51-79-6, Dose [Inhibitor]: 0.25 UMOL/G BW 1/D DURING THE PERIOD OF 5 TO 9 D AFTER CARCINOGEN TREATMENT FOLLOWED BY OBSERVATION PERIOD UNTIL END OF, Route [Inhibitor]: INTRAPERITONEAL, Species: MOUSE, Strain/Sex: ICR/FEMALE, Target Tissue: Type of Lesion: LUNG: PAPILLARY ADENOMA, Dose [Carcinogen]: 1 MG/G BW ONCE, Promoter: NONE USED
  tumour outcome (control, treated, inhibition, significance): 49/53 (93%), 43/62 (69%), 26%, p<0.01

## COc1c2occc2cc2ccc(=O)oc12
Carcinogen: 4-(N-methyl-N-nitrosamino)-1-(3-pyridyl)-1-butanone, 64091-91-4, Dose [Inhibitor]: 0, 1, 10, 100 ppm in diet for 3 d beginning at 7 wks of age, tumors collected 16 wk after treatment, Route [Inhibitor]: Oral, Species: Mouse, Strain/Sex: A/J/Female, Target Tissue: Type of Lesion: Lung: Adenomas, Dose [Carcinogen]: Single dose of 2 mg 3 days after first inhibitor treatment (Test material solvent: saline), Promoter: None
  outcome: 12/20 (75%), 17/20 (95%), 14/20 (70%), 10/20 (50%), p<0.001
